Results reported in patent US20260262643A1, “HERBICIDAL BENZOXAZINES” (FMC CORPORATION, priority 2022, published 2026).

Experiments:
ragweed [1] = test: Test C preemergence; type: in vivo, Ambrosia artemisiifolia; details: for Ragweed plant response rating: preemergence, 0 to 100 scale (0 no effect, 100 complete control)
Method in brief: (§1)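 Seeds sown in loam soil–sand blend received a directed preemergence soil spray of test chemical in non-phytotoxic solvent with surfactant; postemergence plants (2–10 cm, one- to two-leaf stage) were sprayed with the same formulation. Greenhouse-held 10 days, then visually rated for injury versus untreated controls, 0 (no effect) to 100 (complete control).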

corn [2] = test: Test C preemergence; type: in vivo, Zea mays; details: preemergence, 0 to 100 scale (0 no effect, 100 complete control)
Method in brief: as §1

kochia [3] = test: Test C preemergence; type: in vivo, Bassia scoparia; details: for Kochia plant response rating: preemergence, 0 to 100 scale (0 no effect, 100 complete control)
Method in brief: as §1

ducksalad = test: Test D flooded paddy test; type: in vivo, Heteranthera limosa; details: 250 g ai/ha, applied to paddy water, visual rating after 13 to 14 days, scale 0 to 100 (0 no effect, 100 complete control)
Method in brief: (§2)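 Plants grown to the 2-leaf stage; pots flooded to 3 cm above soil at treatment and held at that depth throughout. Test compounds applied directly to the paddy water. After 13 to 14 days in a greenhouse, response was rated visually versus controls on a 0 (no effect) to 100 (complete control) scale.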

ragweed [4] = test: Test C postemergence; type: in vivo, Ambrosia artemisiifolia; details: 10 days
Method in brief: as §1

green foxtail [5] = test: Test C preemergence; type: in vivo, Setaria viridis; details: for Foxtail, Green plant response rating: preemergence, 0 to 100 scale (0 no effect, 100 complete control)
Method in brief: as §1

corn [6] = test: Test C postemergence; type: in vivo, Zea mays; details: 10 days
Method in brief: as §1

oat, wild [7] = test: Test C postemergence; type: in vivo, Avena fatua; details: 10 days
Method in brief: as §1

wheat [8] = test: Test C postemergence; type: in vivo, Triticum aestivum; details: 10 days
Method in brief: as §1

barnyardgrass [9] = test: Test C postemergence; type: in vivo, Echinochloa crusgalli; details: 10 days
Method in brief: as §1

sedge, umbrella = test: Test D flooded paddy test; type: in vivo, Cyperus difformis; details: 250 g ai/ha, applied to paddy water, visual rating after 13 to 14 days, scale 0 to 100 (0 no effect, 100 complete control)
Method in brief: as §2

wheat [10] = test: Test C preemergence; type: in vivo, Triticum aestivum; details: for Wheat plant response rating: preemergence, 0 to 100 scale (0 no effect, 100 complete control)
Method in brief: as §1

ryegrass, Italian [11] = test: Test C postemergence; type: in vivo, Lolium multiflorum; details: 10 days
Method in brief: as §1

barnyardgrass [12] = test: Test D flooded paddy test; type: in vivo, Echinochloa crus-galli; details: 250 g ai/ha, applied to paddy water, visual rating after 13 to 14 days, scale 0 to 100 (0 no effect, 100 complete control)
Method in brief: as §2

green foxtail [13] = test: Test C postemergence; type: in vivo, Setaria viridis; details: 10 days
Method in brief: as §1

soybean [14] = test: Test C postemergence; type: in vivo, Glycine max; details: 10 days
Method in brief: as §1

oat, wild [15] = test: Test C preemergence; type: in vivo, Avena fatua; details: for Oat, Wild plant response rating: preemergence, 0 to 100 scale (0 no effect, 100 complete control)
Method in brief: as §1

kochia [16] = test: Test C postemergence; type: in vivo, Bassia scoparia; details: 10 days
Method in brief: as §1

galium = test: Test C postemergence; type: in vivo, Galium aparine; details: 10 days
Method in brief: as §1

blackgrass [17] = test: Test C postemergence; type: in vivo, Alopecurus myosuroides; details: 10 days
Method in brief: as §1

pigweed, palmer [18] = test: Test C postemergence; type: in vivo, Amaranthus palmeri; details: 10 days
Method in brief: as §1

blackgrass [19] = test: Test C preemergence; type: in vivo, Alopecurus myosuroides; details: for Blackgrass plant response rating: preemergence, 0 to 100 scale (0 no effect, 100 complete control)
Method in brief: as §1

soybean [20] = test: Test C preemergence; type: in vivo, Glycine max; details: for Soybean plant response rating: preemergence, 0 to 100 scale (0 no effect, 100 complete control)
Method in brief: as §1

horseweed = test: Test C postemergence; type: in vivo, Erigeron canadensis; details: 10 days
Method in brief: as §1

rice = test: Test D flooded paddy test; type: in vivo, Oryza sativa; details: 250 g ai/ha, applied to paddy water, visual rating after 13 to 14 days, scale 0 to 100 (0 no effect, 100 complete control)
Method in brief: as §2

pigweed, palmer [21] = test: Test C preemergence; type: in vivo, Amaranthus palmeri; details: for Pigweed, Palmer plant response rating: preemergence, 0 to 100 scale (0 no effect, 100 complete control)
Method in brief: as §1

ryegrass, Italian [22] = test: Test C preemergence; type: in vivo, Lolium multiflorum; details: for Ryegrass, Italian plant response rating: preemergence, 0 to 100 scale (0 no effect, 100 complete control)
Method in brief: as §1

barnyardgrass [23] = test: Test C preemergence; type: in vivo, Echinochloa crusgalli; details: for Barnyardgrass plant response rating: preemergence, 0 to 100 scale (0 no effect, 100 complete control)
Method in brief: as §1

[24] = Preemergence, 125 g ai/ha, 0 to 100 scale, 0 no effect, 100 complete control
[25] = 500 g ai/ha, postemergence, 0 to 100 scale (0 no effect, 100 complete control)
[26] = Postemergence, 125 g ai/ha, 0 to 100 scale (0 no effect, 100 complete control)
[27] = 125 g ai/ha, postemergence, 0 to 100 scale, 0 no effect, 100 complete control

Cc1ncn(-c2ccc(F)c(C(=S)N3C[C@H](C)Oc4c(C)cccc43)c2)n1 [Compound 362]
35: Plant response rating, Barnyardgrass (Flood) (barnyardgrass [12])
90: Plant response rating, Barnyardgrass (barnyardgrass [9]; [25]) | Plant response rating, Ryegrass, Italian (ryegrass, Italian [11]; [25]) | Plant response rating, Foxtail, Green (green foxtail [13]; [25]) | Plant response rating, Kochia (kochia [16]; [25]) | Plant response rating, Blackgrass (blackgrass [17]; [25]) | Plant response rating, Pigweed, Palmer (pigweed, palmer [21]; [24]) | Ryegrass, Italian plant response rating (ryegrass, Italian [22]; 500 g ai/ha)
40: Plant response rating, Corn (corn [6]; [25]) | Plant response rating, Wheat (wheat [8]; [26]) | Wheat plant response rating (wheat [10]; 500 g ai/ha)
25: Plant response rating, Rice (Flood) (rice)
80: Kochia plant response rating (kochia [3]; 500 g ai/ha) | Plant response rating, Ryegrass, Italian (ryegrass, Italian [11]; [26]) | Plant response rating, Kochia (kochia [16]; [26]) | Plant response rating, Pigweed, Palmer (pigweed, palmer [18]; [25]) | Blackgrass plant response rating (blackgrass [19]; 500 g ai/ha) | Plant response rating, Ryegrass, Italian (ryegrass, Italian [22]; [24]) | Plant response rating, Barnyardgrass (barnyardgrass [23]; [24])
50: Plant response rating, Ducksalad (Flood) (ducksalad) | Plant response rating, Ragweed (ragweed [4]; [26]) | Plant response rating, Blackgrass (blackgrass [19]; [24]) | Plant response rating, Soybean (soybean [20]; [24])
60: Ragweed plant response rating (ragweed [1]; 500 g ai/ha) | Plant response rating, Ragweed (ragweed [4]; [25]) | Plant response rating, Oat, Wild (oat, wild [7]; [25]) | Plant response rating, Wheat (wheat [8]; [25]) | Plant response rating, Barnyardgrass (barnyardgrass [9]; [26])
10: Plant response rating, Wheat (wheat [10]; [24]) | Plant response rating, Horseweed (horseweed; [25])
95: Plant response rating, Sedge, Umbrella (Flood) (sedge, umbrella)
30: Plant response rating, Corn (corn [6]; [26]) | Plant response rating, Oat, Wild (oat, wild [7]; [26]) | Plant response rating, Pigweed, Palmer (pigweed, palmer [18]; [26])
0: Plant response rating, Oat, Wild (oat, wild [15]; [24]) | Plant response rating, Horseweed (horseweed; [26])
20: Plant response rating, Ragweed (ragweed [1]; [24]) | Corn plant response rating (corn [2]; 500 g ai/ha)
70: Plant response rating, Kochia (kochia [3]; [24]) | Plant response rating, Foxtail, Green (green foxtail [13]; [26]) | Oat, Wild plant response rating (oat, wild [15]; 500 g ai/ha) | Plant response rating, Blackgrass (blackgrass [17]; [26]) | Soybean plant response rating (soybean [20]; 500 g ai/ha)
100: Foxtail, Green plant response rating (green foxtail [5]; 500 g ai/ha) | Plant response rating, Foxtail, Green (green foxtail [5]; [24]) | Plant response rating, Soybean (soybean [14]; [25]) | Plant response rating, Soybean (soybean [14]; [26]) | Plant response rating, Galium (galium; [25]) | Plant response rating, Galium (galium; [26]) | Pigweed, Palmer plant response rating (pigweed, palmer [21]; 500 g ai/ha) | Barnyardgrass plant response rating (barnyardgrass [23]; 500 g ai/ha)

CC(C)c1ncn(-c2cccc(C(=O)N3CC(C(F)(F)F)Oc4c(Cl)cccc43)c2)n1 (single isomer, unassigned) [Compound 288]
10: Corn plant response rating (corn [2]; 500 g ai/ha) | Kochia plant response rating (kochia [3]; Test C, 125 g ai/ha) | Plant response rating, Corn (corn [6]; [25]) | Plant response rating, Wheat (wheat [8]; [27]) | Plant response rating, Barnyardgrass (barnyardgrass [9]; [27]) | Plant response rating, Barnyardgrass (barnyardgrass [9]; [25]) | Plant response rating, Foxtail, Green (green foxtail [13]; [27]) | Plant response rating, Blackgrass (blackgrass [17]; [25]) | Plant response rating, Pigweed, Palmer (pigweed, palmer [18]; [27]) | Blackgrass plant response rating (blackgrass [19]; Test C, 125 g ai/ha)
50: Kochia plant response rating (kochia [3]; 500 g ai/ha) | Plant response rating, Galium (galium; [25]) | Plant response rating, Pigweed, Palmer (pigweed, palmer [18]; [25]) | Pigweed, Palmer plant response rating (pigweed, palmer [21]; Test C, 125 g ai/ha)
80: Plant response rating, Soybean (soybean [14]; [25]) | Plant response rating, Kochia (kochia [16]; [25]) | Pigweed, Palmer plant response rating (pigweed, palmer [21]; 500 g ai/ha) | Ryegrass, Italian plant response rating (ryegrass, Italian [22]; 500 g ai/ha) | Ryegrass, Italian plant response rating (ryegrass, Italian [22]; Test C, 125 g ai/ha)
30: Plant response rating, Ragweed (ragweed [4]; [27]) | Plant response rating, Ragweed (ragweed [4]; [25]) | Barnyardgrass plant response rating (barnyardgrass [23]; 500 g ai/ha)
40: Plant response rating, Kochia (kochia [16]; [27]) | Soybean plant response rating (soybean [20]; 500 g ai/ha) | Soybean plant response rating (soybean [20]; Test C, 125 g ai/ha)
60: Plant response rating, Soybean (soybean [14]; [27]) | Plant response rating, Galium (galium; [27]) | Blackgrass plant response rating (blackgrass [19]; 500 g ai/ha)
0: Ragweed plant response rating (ragweed [1]; 500 g ai/ha) | Ragweed plant response rating (ragweed [1]; Test C, 125 g ai/ha) | Corn plant response rating (corn [2]; Test C, 125 g ai/ha) | Plant response rating, Ducksalad (Flood) (ducksalad) | Foxtail, Green plant response rating (green foxtail [5]; Test C, 125 g ai/ha) | Plant response rating, Corn (corn [6]; [27]) | Plant response rating, Oat, Wild (oat, wild [7]; [27]) | Plant response rating, Oat, Wild (oat, wild [7]; [25]) | Plant response rating, Sedge, Umbrella (Flood) (sedge, umbrella) | Wheat plant response rating (wheat [10]; Test C, 125 g ai/ha) | Plant response rating, Ryegrass, Italian (ryegrass, Italian [11]; [27]) | Plant response rating, Barnyardgrass (Flood) (barnyardgrass [12]) | Plant response rating, Blackgrass (blackgrass [17]; [27]) | Plant response rating, Horseweed (horseweed; [27]) | Plant response rating, Horseweed (horseweed; [25]) | Plant response rating, Rice (Flood) (rice) | Barnyardgrass plant response rating (barnyardgrass [23]; Test C, 125 g ai/ha)
70: Foxtail, Green plant response rating (green foxtail [5]; 500 g ai/ha)
20: Plant response rating, Wheat (wheat [8]; [25]) | Wheat plant response rating (wheat [10]; 500 g ai/ha) | Plant response rating, Ryegrass, Italian (ryegrass, Italian [11]; [25]) | Plant response rating, Foxtail, Green (green foxtail [13]; [25]) | Oat, Wild plant response rating (oat, wild [15]; 500 g ai/ha) | Oat, Wild plant response rating (oat, wild [15]; Test C, 125 g ai/ha)
